Experimental data from ChEMBL document CHEMBL3414454, “Designing and exploring active N'-[(5-nitrofuran-2-yl) methylene] substituted hydrazides against three Trypanosoma cruzi strains more prevalent in Chagas disease patients” (Eur J Med Chem, 2015).

What was measured:
Trypanosoma cruzi [1] = test: Anti-trypanosomal activity against Trypanosoma cruzi Silvio X10 cl1 epimastigote forms assessed as inhibition of parasite growth after 72 hrs by microplate reader based assay; type: functional, organism-based; conditions: for IC50: Trypanosoma cruzi, Silvio X10 cl1, 72 h
Trypanosoma cruzi [2] = test: Anti-trypanosomal activity against Trypanosoma cruzi Bug 2149 cl10 epimastigote forms assessed as inhibition of parasite growth after 72 hrs by microplate reader based assay; type: functional, organism-based; conditions: for IC50: Trypanosoma cruzi, Bug 2149 cl10, CL1-0, 72 h
[3] = Selectivity index, ratio of IC50 for human LL24 cells to IC50 for Trypanosoma cruzi Y epimastigote forms; type: toxicity, cell-based; conditions: read-out: Ratio IC50
[4] = Cytotoxicity against human LL24 cells assessed as inhibition of cell growth after 24 hrs by MTT assay; type: cell-based; conditions: LL24, 24 h
[5] = Selectivity index, ratio of IC50 for human LL24 cells to IC50 for Trypanosoma cruzi Bug 2149 cl10; type: toxicity, cell-based; conditions: read-out: Ratio IC50
Trypanosoma cruzi [6] = test: Anti-trypanosomal activity against Trypanosoma cruzi Y epimastigote forms assessed as inhibition of parasite growth after 72 hrs by microplate reader based assay; type: functional, organism-based; conditions: for IC50: Trypanosoma cruzi, Y, 72 h
[7] = Selectivity index, ratio of IC50 for human LL24 cells to IC50 for Trypanosoma cruzi Silvio X10 cl1 epimastigote forms; type: toxicity, cell-based; conditions: read-out: Ratio IC50

For O=C(N/N=C/c1ccc([N+](=O)[O-])o1)c1ccccc1Oc1ccccc1, which log1/IC50 (Trypanosoma cruzi [1]) is on record?
Its log1/IC50 is 4.91.

And the IC50 (Trypanosoma cruzi [1])?
The IC50 was 12.3 µM.

What about the log1/IC50 (Trypanosoma cruzi [2]) of the same compound?
The log1/IC50 was 4.91.

And the IC50 (Trypanosoma cruzi [2])?
Its IC50 is 12.2 µM.

And the selectivity ratio [3]?
Its selectivity ratio is greater than 26.

What about the IC50 [4] of the same compound?
The IC50 was greater than 200 µM.

What about the selectivity ratio [5] of the same compound?
The selectivity ratio was greater than 16.

And the log1/IC50 (Trypanosoma cruzi [6])?
The log1/IC50 was 5.11.

What about the IC50 (Trypanosoma cruzi [6]) of the same compound?
The IC50 was 7.79 µM.

And the selectivity ratio [7]?
Its selectivity ratio is greater than 16.

Which results are given for CCCCc1ccc(C(=O)N/N=C/c2ccc([N+](=O)[O-])o2)cc1?
log1/IC50 (Trypanosoma cruzi [1]): 5.32; IC50 (Trypanosoma cruzi [1]): 4.75 µM; log1/IC50 (Trypanosoma cruzi [2]): 5.36; IC50 (Trypanosoma cruzi [2]): 4.41 µM; selectivity ratio [3]: > 64; IC50 [4]: > 200 µM; selectivity ratio [5]: > 45; log1/IC50 (Trypanosoma cruzi [6]): 5.51; IC50 (Trypanosoma cruzi [6]): 3.1 µM; selectivity ratio [7]: > 42

Which results are given for O=C(Cn1ccnc1[N+](=O)[O-])NCc1ccccc1 [BENZNIDAZOLE]?
IC50 [4]: > 200 µM; IC50 (Trypanosoma cruzi [6]): 40.4 µM

With CC(C)c1ccc(C(=O)N/N=C/c2ccc([N+](=O)[O-])o2)cc1 as the compound, how does the log1/IC50 (Trypanosoma cruzi [1]) read?
The log1/IC50 was 5.22.

What about the IC50 (Trypanosoma cruzi [1]) of the same compound?
Its IC50 is 6.09 µM.

And the log1/IC50 (Trypanosoma cruzi [2])?
Its log1/IC50 is 5.04.

And the IC50 (Trypanosoma cruzi [2])?
Its IC50 is 9.04 µM.

And the selectivity ratio [3]?
Its selectivity ratio is greater than 51.

What about the IC50 [4] of the same compound?
Its IC50 is greater than 200 µM.

And the selectivity ratio [5]?
The selectivity ratio was greater than 22.

What about the log1/IC50 (Trypanosoma cruzi [6]) of the same compound?
Its log1/IC50 is 5.41.

And the IC50 (Trypanosoma cruzi [6])?
Its IC50 is 3.91 µM.

And the selectivity ratio [7]?
Its selectivity ratio is greater than 33.

Which log1/IC50 (Trypanosoma cruzi [1]) does the source give for CC(=O)N/N=C/c1ccc([N+](=O)[O-])o1 [NIHYDRAZONE] here?
Its log1/IC50 is 4.57.

What about the IC50 (Trypanosoma cruzi [1]) of the same compound?
Its IC50 is 27.1 µM.

And the log1/IC50 (Trypanosoma cruzi [2])?
Its log1/IC50 is 4.8.

And the IC50 (Trypanosoma cruzi [2])?
Its IC50 is 15.8 µM.

And the selectivity ratio [3]?
Its selectivity ratio is greater than 15.

And the IC50 [4]?
Its IC50 is greater than 200 µM.

What about the selectivity ratio [5] of the same compound?
Its selectivity ratio is greater than 13.

And the log1/IC50 (Trypanosoma cruzi [6])?
The log1/IC50 was 4.86.

And the IC50 (Trypanosoma cruzi [6])?
Its IC50 is 13.7 µM.

And the selectivity ratio [7]?
The selectivity ratio was greater than 7.

Which log1/IC50 (Trypanosoma cruzi [1]) does the source give for CC(C)(C)c1ccc(C(=O)N/N=C/c2ccc([N+](=O)[O-])o2)cc1 here?
The log1/IC50 was 4.86.

What about the IC50 (Trypanosoma cruzi [1]) of the same compound?
The IC50 was 13.7 µM.

What about the log1/IC50 (Trypanosoma cruzi [2]) of the same compound?
The log1/IC50 was 4.86.

What about the IC50 (Trypanosoma cruzi [2]) of the same compound?
The IC50 was 13.7 µM.

What about the selectivity ratio [3] of the same compound?
The selectivity ratio was greater than 21.

What about the IC50 [4] of the same compound?
The IC50 was greater than 200 µM.

What about the selectivity ratio [5] of the same compound?
Its selectivity ratio is greater than 15.

What about the log1/IC50 (Trypanosoma cruzi [6]) of the same compound?
The log1/IC50 was 5.03.

What about the IC50 (Trypanosoma cruzi [6]) of the same compound?
The IC50 was 9.43 µM.

What about the selectivity ratio [7] of the same compound?
Its selectivity ratio is greater than 15.

For O=C(N/N=C/c1ccc([N+](=O)[O-])o1)c1ccc(Cl)cc1, which log1/IC50 (Trypanosoma cruzi [1]) is on record?
Its log1/IC50 is 4.7.

And the IC50 (Trypanosoma cruzi [1])?
Its IC50 is 20 µM.

What about the log1/IC50 (Trypanosoma cruzi [2]) of the same compound?
The log1/IC50 was 4.84.

And the IC50 (Trypanosoma cruzi [2])?
The IC50 was 14.5 µM.

And the selectivity ratio [3]?
Its selectivity ratio is 20.4.

And the IC50 [4]?
The IC50 was 187 µM.

What about the selectivity ratio [5] of the same compound?
The selectivity ratio was 12.9.

What about the log1/IC50 (Trypanosoma cruzi [6]) of the same compound?
The log1/IC50 was 5.04.

And the IC50 (Trypanosoma cruzi [6])?
The IC50 was 9.15 µM.

And the selectivity ratio [7]?
The selectivity ratio was 9.36.

What does the source list for O=C(N/N=C/c1ccc([N+](=O)[O-])o1)C1CCCC1?
log1/IC50 (Trypanosoma cruzi [1]): 4.7; IC50 (Trypanosoma cruzi [1]): 19.9 µM; log1/IC50 (Trypanosoma cruzi [2]): 4.84; IC50 (Trypanosoma cruzi [2]): 14.6 µM; selectivity ratio [3]: 5; IC50 [4]: 58 µM; selectivity ratio [5]: 4; log1/IC50 (Trypanosoma cruzi [6]): 4.93; IC50 (Trypanosoma cruzi [6]): 11.9 µM; selectivity ratio [7]: 3

For CN(C)c1ccc(C(=O)N/N=C/c2ccc([N+](=O)[O-])o2)cc1, which log1/IC50 (Trypanosoma cruzi [1]) is on record?
The log1/IC50 was 4.

And the IC50 (Trypanosoma cruzi [1])?
Its IC50 is 100 µM.

And the log1/IC50 (Trypanosoma cruzi [2])?
Its log1/IC50 is 4.33.

And the IC50 (Trypanosoma cruzi [2])?
Its IC50 is 47.3 µM.

What about the selectivity ratio [3] of the same compound?
Its selectivity ratio is greater than 2.

What about the IC50 [4] of the same compound?
The IC50 was greater than 200 µM.

And the selectivity ratio [5]?
Its selectivity ratio is greater than 4.

And the log1/IC50 (Trypanosoma cruzi [6])?
Its log1/IC50 is 4.

What about the IC50 (Trypanosoma cruzi [6]) of the same compound?
The IC50 was 100 µM.

And the selectivity ratio [7]?
The selectivity ratio was greater than 2.

Which log1/IC50 (Trypanosoma cruzi [1]) does the source give for O=C(N/N=C/c1ccc([N+](=O)[O-])o1)C1CCCCC1 here?
Its log1/IC50 is 4.86.

What about the IC50 (Trypanosoma cruzi [1]) of the same compound?
Its IC50 is 13.7 µM.

What about the log1/IC50 (Trypanosoma cruzi [2]) of the same compound?
Its log1/IC50 is 4.89.

What about the IC50 (Trypanosoma cruzi [2]) of the same compound?
The IC50 was 12.8 µM.

What about the selectivity ratio [3] of the same compound?
The selectivity ratio was greater than 14.

And the IC50 [4]?
The IC50 was greater than 200 µM.

What about the selectivity ratio [5] of the same compound?
The selectivity ratio was greater than 16.

What about the log1/IC50 (Trypanosoma cruzi [6]) of the same compound?
The log1/IC50 was 4.84.

And the IC50 (Trypanosoma cruzi [6])?
The IC50 was 14.4 µM.

And the selectivity ratio [7]?
Its selectivity ratio is greater than 15.

For N#Cc1ccc(C(=O)N/N=C/c2ccc([N+](=O)[O-])o2)cc1, which log1/IC50 (Trypanosoma cruzi [1]) is on record?
The log1/IC50 was 4.43.

What about the IC50 (Trypanosoma cruzi [1]) of the same compound?
Its IC50 is 37.4 µM.

What about the log1/IC50 (Trypanosoma cruzi [2]) of the same compound?
Its log1/IC50 is 4.6.

And the IC50 (Trypanosoma cruzi [2])?
Its IC50 is 25.3 µM.

What about the selectivity ratio [3] of the same compound?
Its selectivity ratio is greater than 9.

What about the IC50 [4] of the same compound?
Its IC50 is greater than 200 µM.

And the selectivity ratio [5]?
The selectivity ratio was greater than 8.

And the log1/IC50 (Trypanosoma cruzi [6])?
Its log1/IC50 is 4.64.

And the IC50 (Trypanosoma cruzi [6])?
Its IC50 is 23.1 µM.

And the selectivity ratio [7]?
Its selectivity ratio is greater than 5.

For O=C(N/N=C/c1ccc([N+](=O)[O-])o1)c1ccccc1, which log1/IC50 (Trypanosoma cruzi [1]) is on record?
The log1/IC50 was 4.51.

And the IC50 (Trypanosoma cruzi [1])?
Its IC50 is 31.1 µM.

And the log1/IC50 (Trypanosoma cruzi [2])?
Its log1/IC50 is 4.85.

And the IC50 (Trypanosoma cruzi [2])?
The IC50 was 14.2 µM.

What about the selectivity ratio [3] of the same compound?
Its selectivity ratio is 14.

And the IC50 [4]?
The IC50 was 178 µM.

What about the selectivity ratio [5] of the same compound?
The selectivity ratio was 12.5.

What about the log1/IC50 (Trypanosoma cruzi [6]) of the same compound?
The log1/IC50 was 4.9.

What about the IC50 (Trypanosoma cruzi [6]) of the same compound?
The IC50 was 12.6 µM.

What about the selectivity ratio [7] of the same compound?
The selectivity ratio was 5.72.
